How the values were obtained:
spinal cord-injured rats = test: Inhibitory activity on detrusor hyperreflexia (cystometry test); type: in vivo, rat; settings: average ± standard error
Procedure: The experiment was carried out according to the method of Cheng, et al. [Brain Res., Vol. 678, pp. 40-48 (1995)].
(§1) Female SD rats of 8 to 10 weeks of age (supplied by Japan SLC) were used in the test. Five to seven animals of these rats were put in each metal cage and reared by allowing them to freely take commercially available chow and water, in an animal room at room temperature between 19 and 25° C. and humidity between 30 and 70% under illumination for 12 hours (from 7:00 a.m. to 7:00 p.m.) per day.
An operation of spinal cord injury was performed in the rats. Each animal was anesthetized with diethyl ether and the skin of the back side thoracic cord part was incised. A laminectomy at the 7th to 8th thoracic vertebrae level was performed. Then, the thoracic cord at the T7-T8 segments was macroscopically cut and a section of spinal cord (about 5 mm) was removed, and the wound cavity of the removed part was filled with oxidized regenerated cellulose for hemostasis. The incised part was sutured with a surgical silk. After the spinal cord injury operation, urine was expressed manually twice per day (at 8:00-9:00 and 18:00-19:00) for about 3 weeks until autonomic micturition developed. An antibiotic (ampicillin, Sigma. Chemical Co.) was intramuscularly administered to the animals at a dose of 150 mg/kg once to twice per day for about 2 weeks.
(§2) Four to five weeks after the spinal cord injury, the rats were subjected to bladder catheterization. Under diethyl ether anesthesia, the bladder was exposed by midline incision of the abdomen. […] The bladder catheter was fixed with a surgical silk ligature and indwelled. The other end of the catheter was exposed subcutaneously from the back of the neck, plugged and then fixed to the skin with a surgical thread.
Four to six days after the bladder catheterization, a cystometry test was performed. The rats were put in a Bollman cage (Natsume Seisakusho Co., Ltd.) and a three-way cock was connected to the bladder catheter, one end of the cock was connected to a pressure transducer (Nihon Kohden Corp.) and the other end was connected to a 50-mL syringe (Terumo Corp.) arranged to an infusion pump (Harvard Apparatus, Inc.) for physiological saline infusion. The intravesical pressure signal from the pressure transducer was amplified with a strain pressure amplifier (AP-601G, Nihon Kohden Corp.) connected thereto, and was recorded on a thermal array recorder (RTA-1200, Nihon Kohden Corp.) via a polygraph system (RMP-6008, Nihon Kohden Corp.) containing the above amplifier. Sixty to ninety minutes after the completion of the preparation for the measurement, a room temperature physiological saline was infused into the bladder at a flow rate of 10 mL/h for 30 minutes, the occurence of micturition contractions was confirmed. Thirty minutes later, the infusion of physiological saline was carried out again for 30 minutes, and the intravesical pressure was measured to be used as the pre-administration value. Each of Compounds 1 to 6 was suspended in a 0.5 w/v % aqueous solution of methylcellulose at a concentration of 1 mg/mL suspension. The suspension was further diluted with a 0.5 w/v % aqueous solution of methylcellulose to prepare a suspension or solution for the administration at the intended concentration, which was then orally administered to the animals at a volume of 1 mL/kg. The period of 1, 3 and 5 hours after the dosing was used as the measuring time after the administration of the solvent or a compound tested, and the intravesical infusion of a physiological saline was carried out during a duration of 15 minutes around each measuring time (i.e. from 45 to 75 minutes, from 165 to 195 minutes and from 285 to 315 minutes after the administration of the compound).
Micturition contraction was measured as an index of the voiding function and pre-micturition contraction was measured as an index of detrusor hyperreflexia. […]

[1] = tested on: rats with bladder hypertrophy; test: Inhibitory activity on detrusor instability (cystometry test after partial urethral obstruction); type: in vivo, rat; settings: average ± standard error
Procedure: The experiment was carried out according to the method of Malmgren, et al. [J. Urol., Vol. 142, pp. 1134-1138 (1989)].
as §1, with “(7:00 a.m.-7:00” for “(from 7:00 a.m. to 7:00”
The rats were subjected to operation of partial urethral obstruction. Each animal was anesthetized by intraperitoneal administration of 50 mg/kg pentobarbital sodium (Dainippon Pharmaceutical Co., Ltd.), and the midline incision of the skin and muscle was made in the lower abdomen. A polyethylene tube (PE-20, Nippon Becton Dickinson Co., Ltd.) was inserted into urethra from the urethral to the bladder neck. After the proximal urethra was peeled and double-ligated, the polyethylene tube was pulled out to cause partial urethral obstruction. The incised part was-sutured with a surgical silk thread. An antibiotic (ampicillin, Sigma Chemical Co.) was intramusclarly administered to the animals at a dose of 150 mg/kg.
as §2, with “Six” for “Four to five”, “operation of the partial urethral obstruction,” for “spinal cord injury,”, “rats with bladder hypertrophy” for “rats”, “anesthesia with pentobarbital sodium,” for “diethyl ether anesthesia,”
Four to six days after the bladder catheterization, a cystometry test was performed. The rats were put in a Bollman cage (Natsume Seisakusho Co., Ltd.) and a three-way cock was connected to the bladder catheter, one end of the cock was connected to a pressure transducer (Nihon Kohden Corp.) and the other end was connected to a 50-mL syringe (Terumo Corp.) arranged to an infusion pump (Harvard Apparatus, Inc.) for physiological saline infusion. The intravesical pressure signal from the pressure transducer was amplified with a strain pressure amplifier (AP-601G, Nihon Kohden Corp.) connected thereto, and was recorded on a thermal array recorder (RTA-1200, Nihon Kohden Corp.) via a polygraph system (RMP-6008, Nihon Kohden Corp.) containing the above amplifier. Sixty to ninety minutes after the completion of the preparation for the measurement, intravesical infusion of a room temperature physiological saline at a flow rate of 10 mL/h was started and continued until the completion of the test, and the occurrence of micturition contractions and pre-micturition contractions were confirmed. The chart for 30 minutes after 3 hours from the commencement of the saline infusion was used as the values before the drug administration. Each of Compounds 1 to 3 was suspended in a 0.5 w/v % aqueous solution of methylcellulose at a concentration of 1 mg/mL. The suspension was further diluted with a 0.5 w/v % aqueous solution of methylcellulose to prepare a suspension or solution for the administration at the intended concentration. This was then orally administered to the animals at a volume of 1 mL/kg. The period of 1, 3 and 5 hours after the dosing was used as the measuring time after the administration of the solvent or a compound tested, and a duration of 15 minutes around each measuring time (45 to 75 minutes, 165 to 195 minutes and 285 to 315 minutes after the administration of the compound) was used as the measuring period.
Micturition contraction was used as an index of the voiding function and pre-micturition contraction was measure as an index of detrusor instability. […]

## COc1ccc2c(c1)CS(=O)(=O)c1cccc(NC(=O)C(C)(O)C(F)(F)F)c1C2=O (stereo not drawn) [Compound 2]
Spinal cord-injured rats; 3 mg/kg p.o., after 1 hr.
  micturition contractions (relative value, before administration = 100): 94.9 ± 14.3%
  pre-micturition contractions (relative value, before administration = 100): 55.1 ± 7.3%
Spinal cord-injured rats; 3 mg/kg p.o., after 3 hrs.
  micturition contractions (relative value, before administration = 100): 93.6 ± 16.7%
  pre-micturition contractions (relative value, before administration = 100): 80.2 ± 23.6%
Spinal cord-injured rats; 3 mg/kg p.o., after 5 hrs.
  micturition contractions (relative value, before administration = 100): 99.4 ± 9.0%
  pre-micturition contractions (relative value, before administration = 100): 66.8 ± 14.5%
[1]; 3 mg/kg p.o., after 1 hr.
  micturition contractions (relative value, before administration = 100): 104.5 ± 2.0%
  pre-micturition contractions (relative value, before administration = 100): 67.5 ± 7.9%
[1]; 3 mg/kg p.o., after 3 hrs.
  micturition contractions (relative value, before administration = 100): 101.9 ± 5.9%
  pre-micturition contractions (relative value, before administration = 100): 66.9 ± 8.5%
[1]; 3 mg/kg p.o., after 5 hrs.
  micturition contractions (relative value, before administration = 100): 100.9 ± 5.5%
  pre-micturition contractions (relative value, before administration = 100): 74.7 ± 7.6%

## CC(C)(C(=O)[O-])C(=O)Nc1cccc2c1C(=O)c1sccc1CS2(=O)=O.[Na+] [Compound 3]
Spinal cord-injured rats; 1 mg/kg p.o., after 1 hr.
  micturition contractions (relative value, before administration = 100): 109.3 ± 5.7%
  pre-micturition contractions (relative value, before administration = 100): 66.2 ± 15.8%
Spinal cord-injured rats; 1 mg/kg p.o., after 3 hrs.
  micturition contractions (relative value, before administration = 100): 109.5 ± 8.2%
  pre-micturition contractions (relative value, before administration = 100): 65.3 ± 24.9%
Spinal cord-injured rats; 1 mg/kg p.o., after 5 hrs.
  micturition contractions (relative value, before administration = 100): 111.4 ± 5.6%
  pre-micturition contractions (relative value, before administration = 100): 52.3 ± 13.7%
[1]; 10 mg/kg p.o., after 1 hr.
  micturition contractions (relative value, before administration = 100): 96.8 ± 6.3%
  pre-micturition contractions (relative value, before administration = 100): 62.4 ± 7.1%
[1]; 10 mg/kg p.o., after 3 hrs.
  micturition contractions (relative value, before administration = 100): 95.7 ± 4.7%
  pre-micturition contractions (relative value, before administration = 100): 49.1 ± 6.3%
[1]; 10 mg/kg p.o., after 5 hrs.
  micturition contractions (relative value, before administration = 100): 92.2 ± 4.6%
  pre-micturition contractions (relative value, before administration = 100): 51.8 ± 3.5%

From patent US7276532B2, “Remedies for vesical hyperactivity” (Kyowa Hakko Kogyo Co., Ltd., priority 2001, dated 2007)
